“And” between values parts separate entries of the source, which are not always exact repeats. Identical values can stand only once. Like-named read-outs stand apart in the source and are kept apart here.
Columns and labels:
T. mentagrophytes = system: T. mentagrophytes
Procedure: Phenol Resistance Control: The phenol resistance of Trichophyton mentagrophytes was determined per the AOAC method. Final phenol dilutions were made the day of use from stock phenol within manufacturer's stability specification.

S. cholerasuis = system: S. cholerasuis
Procedure: (§1) Phenol Resistance Control: The phenol resistance of the test organisms were determined per the AOAC method.
(§2) Final phenol dilutions were made the day of use from stock phenol within manufacturer's stability specification.

P. aeruginosa = system: P. aeruginosa
Procedure: as §1, §2

S. aureus = system: S. aureus
Procedure: as §1, §2

guinea pigs [1] = conditions: 0.4 mL, historical data, cited from earlier work
guinea pigs [2] = test: Dermal sensitization test in guinea pigs (Buehler)
guinea pigs [3] = conditions: Positive Control animals, historical data, cited from earlier work; for Individual Bodyweight Initial: baseline
[4] = Dilution 1:60, Exposure Time 5 Minutes
[5] = Dilution 1:60, Exposure Time 10 Minutes
[6] = Dilution 1:70, Exposure Time 5 Minutes
[7] = Dilution 1:70, Exposure Time 10 Minutes
[8] = Dilution 1:90, Exposure Time 5 Minutes
[9] = Dilution 1:90, Exposure Time 10 Minutes
[10] = Dilution 1:90, Exposure Time 15 Minutes
[11] = historical positive naive control animals, 0.04% in acetone

With Oc1ccccc1 [Phenol, phenol] the “Phenol Resistance, growth in subculture” value (T. mentagrophytes; [4]) was 0, the “Phenol Resistance, growth in subculture” value (T. mentagrophytes; [5]) was 0 and the “Phenol Resistance, growth in subculture” value (T. mentagrophytes; [6]) was “+”. For the same molecule, the “Phenol Resistance, growth in subculture” value (T. mentagrophytes; [7]) was “+”, the “Phenol Resistance, growth in subculture” value (S. cholerasuis; [8]) was “+” and the “Phenol Resistance, growth in subculture” value (S. cholerasuis; [9]) was 0. For the same molecule, the “Phenol Resistance, growth in subculture” value (S. cholerasuis; [10]) was 0, the “Phenol Resistance, growth in subculture” value (S. cholerasuis; Dilution 1:100, Exposure Time 5 Minutes) was “+” and the “Phenol Resistance, growth in subculture” value (S. cholerasuis; Dilution 1:100, Exposure Time 10 Minutes) was “+”. For the same molecule, the “Phenol Resistance, growth in subculture” value (S. cholerasuis; Dilution 1:100, Exposure Time 15 Minutes) was 0, the “Phenol Resistance, growth in subculture” value (P. aeruginosa; Dilution 1:80, Exposure Time 5 Minutes) was 0 and the “Phenol Resistance, growth in subculture” value (P. aeruginosa; Dilution 1:80, Exposure Time 10 Minutes) was 0. For the same molecule, the “Phenol Resistance, growth in subculture” value (P. aeruginosa; Dilution 1:80, Exposure Time 15 Minutes) was 0, the “Phenol Resistance, growth in subculture” value (P. aeruginosa; [8]) was “+” and the “Phenol Resistance, growth in subculture” value (P. aeruginosa; [9]) was “+”. The “Phenol Resistance, growth in subculture” value (P. aeruginosa; [10]) was “+”, the “Phenol Resistance, growth in subculture” value (S. aureus; [4]) was “+” and the “Phenol Resistance, growth in subculture” value (S. aureus; [5]) was “+”. The “Phenol Resistance, growth in subculture” value (S. aureus; Dilution 1:60, Exposure Time 15 Minutes) was 0, the “Phenol Resistance, growth in subculture” value (S. aureus; [6]) was “+” and the “Phenol Resistance, growth in subculture” value (S. aureus; [7]) was “+”. The “Phenol Resistance, growth in subculture” value (S. aureus; Dilution 1:70, Exposure Time 15 Minutes) was “+”.

For O=[N+]([O-])c1ccc(Cl)c([N+](=O)[O-])c1 [DNCB, 1-Chloro-2,4-Dinitrobenzene], the “Preliminary Irritation Testing Score” value (guinea pigs [1]; Concentration 0.02% w/w in acetone) is given as 0, the “Preliminary Irritation Testing Score” value (guinea pigs [1]; Concentration 0.03% w/w in acetone) is given as 0 and 0.5 and the “Preliminary Irritation Testing Score” value (guinea pigs [1]; Concentration 0.04% w/w in acetone) is given as 0 and 0.5. For the same molecule, the “erythema score, induction phase” value (guinea pigs [2]; historical positive control animals, 0.08% in 80% aqueous ethanol) was 0.5-3, the “sites with very faint erythema (0.5) 24 hours after challenge” value (guinea pigs [2]; [11]) was “two” and the “time for irritation to clear from affected sites” value (guinea pigs [2]; [11]) was no more than 48 h. The “Individual Bodyweight Initial” value (guinea pigs [3]; female guinea pigs) was 393 g and 404 g and 415 g and 411 g and 408 g and 428 g and 372 g, the “Individual Bodyweight Initial” value (guinea pigs [3]; male guinea pigs) was 406 g (2×) and 379 g and 413 g and 423 g and 408 g and 386 g and 407 g and the “Individual Bodyweight Day After Challenge” value (guinea pigs [3]; female guinea pigs) was 568 g and 660 g and 581 g and 536 g and 591 g and 544 g and 609 g. For the same molecule, the “Individual Bodyweight Day After Challenge” value (guinea pigs [3]; male guinea pigs) was 579 g and 544 g and 600 g and 618 g and 668 g and 551 g and 639 g and 599 g.

Source: patent US20110212933A1, “Antiseptic Compositions for the Treatment of Infections” (priority 2008, published 2011)
